{"source": "patent EP4610269A1", "about": "“UROKINASE PLASMINOGEN ACTIVATOR SURFACE RECEPTOR (UPAR) LIGANDS FOR DIAGNOSTIC OR THERAPEUTIC USE” (3B Pharmaceuticals GmbH, priority 2024, dated 2025)", "key": {"[1]": {"target": "T1, uPAR-expressing HEC-265 human endometrial adenocarcinoma cells (Homo sapiens, UniProt Q03405)", "T1 construct": "Cell surface uPAR-expressing HEC-265 human endometrial adenocarcinoma cells; host or cells: HEC-265", "T1 sequence (Q03405 23-335)": "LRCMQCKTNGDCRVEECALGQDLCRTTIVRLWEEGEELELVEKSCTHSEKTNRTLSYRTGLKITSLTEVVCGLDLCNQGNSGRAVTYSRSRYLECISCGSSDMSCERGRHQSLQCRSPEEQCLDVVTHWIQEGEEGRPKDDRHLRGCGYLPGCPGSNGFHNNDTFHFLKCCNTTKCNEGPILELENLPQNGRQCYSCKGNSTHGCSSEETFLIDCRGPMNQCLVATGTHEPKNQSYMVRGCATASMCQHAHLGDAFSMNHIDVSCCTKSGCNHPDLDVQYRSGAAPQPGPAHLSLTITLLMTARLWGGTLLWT", "test": "Competitive FACS binding assay", "conditions": "pIC50 category of FACS binding", "summary_of_the_method": "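HEC-265 cells incubated 1 h at 4 °C with 10 nM biotinylated uPAR peptide tracer plus increasing test compound, then stained with APC-streptavidin on ice. Median APC fluorescence by flow cytometry; 4PL fit gives pIC50.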"}, "[2]": {"target": "T2, human uPAR (uPAR-Fc) (Homo sapiens, UniProt Q03405)", "T2 construct": "comprising amino acids Leu23-Arg303 according to UniProt entry Q03405.1; purchased R&D Systems 10378-UK-100", "T2 sequence (Q03405 23-303)": "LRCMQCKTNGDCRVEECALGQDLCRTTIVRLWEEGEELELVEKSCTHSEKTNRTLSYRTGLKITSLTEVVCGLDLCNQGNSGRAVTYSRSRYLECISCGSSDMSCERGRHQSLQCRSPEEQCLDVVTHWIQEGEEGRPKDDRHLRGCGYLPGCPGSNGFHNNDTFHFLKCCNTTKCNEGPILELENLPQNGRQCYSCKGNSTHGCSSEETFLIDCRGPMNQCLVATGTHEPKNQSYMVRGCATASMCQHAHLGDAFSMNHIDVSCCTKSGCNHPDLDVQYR", "test": "Surface plasmon resonance (SPR) assay, single cycle kinetics", "assay_type": "binding", "conditions": "pKD category for uPAR SPR activity assay; uPAR-Fc on Protein A-Chip, 25°C; read-out: pKD CAT (converted)", "summary_of_the_method": "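uPAR-Fc (Leu23-Arg303 extracellular domains, human IgG1 Fc) captured on Protein A chip to ~2000 RU; single-cycle kinetics at 25°C in HEPES running buffer pH 7.4 with 0.1% DMSO. KD from double-referenced sensorgrams fitted to 1:1 Langmuir model, reported as pKD.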"}}, "note": "Where a SMILES comes first, the peptide text is derived from it. Bridges are numbered along the chain shown (N, C = ends). [ ]: non-standard residue; d: D form. The star is where a group is joined. DOTA = O=C(O)CN1CCN(CC(=O)O)CCN(CC(=O)*)CCN(CC(=O)O)CC1; Pro(cis-4-F) = O=C(O)[C@@H]1C[C@H](F)CN1; Pro(4R-NH2) = N[C@H]1CN[C@H](C(=O)O)C1; Hyp = O=C(O)[C@@H]1C[C@@H](O)CN1; hArg = N=C(N)NCCCC[C@H](N)C(=O)O; 3Pal = N[C@@H](Cc1cccnc1)C(=O)O; Pentanoyl(4-Me) = CC(C)CCC(=O)*; Cit = NC(=O)NCCC[C@H](N)C(=O)O; Butoxycarbonyl = CCCCOC(=O)*; Nva = CCC[C@H](N)C(=O)O; Pentanoyl = CCCCC(=O)*", "data": [{"smiles": "CC[C@H](C)[C@@H]1NC(=O)[C@@H](C)NC(=O)[C@@H]2CCCN2C(=O)[C@H](Cc2ccccc2)NC(=O)[C@H](C)NC(=O)[C@H](CCC(N)=O)NC(=O)[C@H](CCCNC(N)=O)NC(=O)[C@@H](NC(=O)CCC(C)C)CSSC[C@@H](C(N)=O)NC(=O)[C@H](CC(C)C)NC1=O", "note": "[UPAR-159, iHex-[Cys-Cit-Gln-Ala-Phe-Pro-ala-Ile-Leu-Cys]-NH2] ({Pentanoyl(4-Me)}-C[Cit]QAFP[dA]ILC-NH2; disulfide 1-10)", "values": [{"measurement": "IC50", "setting": "[1]", "value": "≥ 126", "unit": "nM"}, {"measurement": "Kd", "setting": "[2]", "value": "> 100", "unit": "nM"}]}, {"smiles": "CC[C@H](C)[C@@H]1NC(=O)[C@@H](C)NC(=O)[C@@H]2CCCN2C(=O)[C@H](Cc2ccccc2)NC(=O)[C@H](Cc2ccc(O)cc2)NC(=O)[C@H](CCCNC(=N)N)NC(=O)[C@H](CCCNC(N)=O)NC(=O)[C@@H](NC(=O)CCC(C)C)CSSC[C@@H](C(N)=O)NC(=O)[C@H](CC(C)C)NC1=O", "note": "[UPAR-160, iHex-[Cys-Cit-Arg-Tyr-Phe-Pro-ala-Ile-Leu-Cys]-NH2] ({Pentanoyl(4-Me)}-C[Cit]RYFP[dA]ILC-NH2; disulfide 1-10)", "values": [{"measurement": "IC50", "setting": "[1]", "value": "≤ 10", "unit": "nM"}, {"measurement": "Kd", "setting": "[2]", "value": "< 1.58", "unit": "nM"}]}, {"smiles": "CCCCC(=O)N[C@H]1CSSC[C@@H](C(N)=O)NC(=O)[C@H](CCC)NC(=O)[C@H]([C@@H](C)CC)NC(=O)[C@@H](CC(=O)O)NC(=O)[C@@H]2CCCN2C(=O)[C@H](Cc2ccccc2)NC(=O)[C@H](Cc2ccc(O)cc2)NC(=O)[C@H](CCC(N)=O)NC(=O)[C@H](CCCNC(=N)N)NC1=O", "note": "[UPAR-161, Pent-[Cys-Arg-Gln-Tyr-Phe-Pro-asp-Ile-Nva-Cys]-NH2] (Pentanoyl-CRQYFP[dD]I[Nva]C-NH2; disulfide 1-10)", "values": [{"measurement": "IC50", "setting": "[1]", "value": "≤ 10", "unit": "nM"}, {"measurement": "Kd", "setting": "[2]", "value": "10 to 100", "unit": "nM"}]}, {"smiles": "CC[C@H](C)[C@@H]1NC(=O)[C@@H](C)NC(=O)[C@@H]2CCCN2C(=O)[C@H](Cc2ccccc2)NC(=O)[C@H](Cc2ccc(O)cc2)NC(=O)[C@H](CCCCNC(=O)CN2CCN(CC(=O)O)CCN(CC(=O)O)CCN(CC(=O)O)CC2)NC(=O)[C@H](CCCNC(=N)N)NC(=O)[C@@H](NC(=O)[C@H](CC(C)C)NC(C)=O)CSSC[C@@H](C(N)=O)NC(=O)[C@H](CC(C)C)NC1=O", "note": "[UPAR-162, Ac-Leu-[Cys-Arg-Lys(DOTA)-Tyr-Phe-Pro-ala-Ile-Leu-Cys]-NH2] (Ac-LCRK(DOTA)YFP[dA]ILC-NH2; disulfide 2-11)", "values": [{"measurement": "IC50", "setting": "[1]", "value": "≤ 10", "unit": "nM"}, {"measurement": "Kd", "setting": "[2]", "value": "< 1.58", "unit": "nM"}]}, {"smiles": "CC[C@H](C)[C@@H]1NC(=O)[C@@H](C)NC(=O)[C@@H]2C[C@@H](N)CN2C(=O)[C@H](Cc2ccccc2)NC(=O)[C@H](Cc2ccc(O)cc2)NC(=O)[C@H](CCC(N)=O)NC(=O)[C@H](CCCNC(N)=O)NC(=O)[C@@H](NC(=O)CCC(C)C)CSSC[C@@H](C(N)=O)NC(=O)[C@H](CC(C)C)NC1=O", "note": "[UPAR-163, iHex-[Cys-Cit-Gln-Tyr-Phe-Tap-ala-Ile-Leu-Cys]-NH2] ({Pentanoyl(4-Me)}-C[Cit]QYF[Pro(4R-NH2)][dA]ILC-NH2; disulfide 1-10)", "values": [{"measurement": "IC50", "setting": "[1]", "value": "12.6 to 31.6", "unit": "nM"}, {"measurement": "Kd", "setting": "[2]", "value": "1.58 to 10", "unit": "nM"}]}, {"smiles": "CC(C)CCC(=O)N[C@H]1CSSC[C@@H](C(N)=O)NC(=O)[C@H](CC(C)C)NC(=O)[C@H](C)NC(=O)[C@@H](C)NC(=O)[C@@H]2CCCN2C(=O)[C@H](Cc2ccccc2)NC(=O)[C@H](Cc2ccc(O)cc2)NC(=O)[C@H](CCC(N)=O)NC(=O)[C@H](CCCNC(N)=O)NC1=O", "note": "[UPAR-164, iHex-[Cys-Cit-Gln-Tyr-Phe-Pro-ala-Ala-Leu-Cys]-NH2] ({Pentanoyl(4-Me)}-C[Cit]QYFP[dA]ALC-NH2; disulfide 1-10)", "values": [{"measurement": "IC50", "setting": "[1]", "value": "≥ 126", "unit": "nM"}, {"measurement": "Kd", "setting": "[2]", "value": "> 100", "unit": "nM"}]}, {"smiles": "CCCCOC(=O)N[C@H]1CSSC[C@@H](C(N)=O)NC(=O)[C@H](CCC)NC(=O)[C@H]([C@@H](C)CC)NC(=O)[C@@H]2C[C@@H](O)CN2C(=O)[C@@H]2C[C@H](F)CN2C(=O)[C@H](Cc2ccccc2)NC(=O)[C@H](Cc2cccnc2)NC(=O)[C@H](CCCCNC(=O)CN2CCN(CC(=O)O)CCN(CC(=O)O)CCN(CC(=O)O)CC2)NC(=O)[C@H]([C@@H](C)O)NC1=O", "note": "[UPAR-165, Butoc-[Cys-Thr-Lys(DOTA)-Mpa-Phe-4Cfp-Hyp-Ile-Nva-Cys]-NH2] (Butoxycarbonyl-CTK(DOTA)[3Pal]F[Pro(cis-4-F)][Hyp]I[Nva]C-NH2; disulfide 1-10)", "values": [{"measurement": "IC50", "setting": "[1]", "value": "≤ 10", "unit": "nM"}, {"measurement": "Kd", "setting": "[2]", "value": "< 1.58", "unit": "nM"}]}, {"smiles": "CC[C@H](C)[C@@H]1NC(=O)[C@@H]2C[C@@H](O)CN2C(=O)[C@@H]2CCCN2C(=O)[C@H](Cc2ccccc2)NC(=O)[C@H](Cc2ccc(O)cc2)NC(=O)[C@H](CCC(N)=O)NC(=O)[C@H](CCCCNC(=N)N)NC(=O)[C@@H](NC(=O)CCC(C)C)CSSC[C@@H](C(N)=O)NC(=O)[C@H](CC(C)C)NC1=O", "note": "[UPAR-167, iHex-[Cys-Har-Gln-Tyr-Phe-Pro-Hyp-Ile-Leu-Cys]-NH2] ({Pentanoyl(4-Me)}-C[hArg]QYFP[Hyp]ILC-NH2; disulfide 1-10)", "values": [{"measurement": "IC50", "setting": "[1]", "value": "≤ 10", "unit": "nM"}, {"measurement": "Kd", "setting": "[2]", "value": "< 1.58", "unit": "nM"}]}]}
